According to ChEMBL document CHEMBL2169853, “Discovery and in vivo evaluation of dual PI3Kβ/δ inhibitors” (J Med Chem, 2012):
Values after ≈ are worked out from the molar mass of the structure shown.

Assays:
in vitro [1] = details: rat, liver microsomes
Description: Drug metabolism in rat liver microsomes at 1 uM after 30 mins

[2] = target: T1, Phosphatidylinositol 4,5-bisphosphate 3-kinase catalytic subunit beta isoform (Homo sapiens, UniProt P42338)
Description: Inhibition of PI3Kbeta-mediated AKT Ser473 phosphorylation in human MDA-MB-468 cells after 120 mins by meso scale discover assay

physchem [3] = details: phosphate buffered saline, pH 7.4
Description: Solubility of the compound in phosphate buffered saline at pH 7.4

physchem [4] = details: buffer, pH 7.4
Description: Lipophilicity, log D of the compound at pH 7.4

[5] = target: T2, PXR (nuclear receptor subfamily 1 group I member 2) (Homo sapiens, UniProt O75469); experiment: in vitro
T2 sequence (O75469 whole entry): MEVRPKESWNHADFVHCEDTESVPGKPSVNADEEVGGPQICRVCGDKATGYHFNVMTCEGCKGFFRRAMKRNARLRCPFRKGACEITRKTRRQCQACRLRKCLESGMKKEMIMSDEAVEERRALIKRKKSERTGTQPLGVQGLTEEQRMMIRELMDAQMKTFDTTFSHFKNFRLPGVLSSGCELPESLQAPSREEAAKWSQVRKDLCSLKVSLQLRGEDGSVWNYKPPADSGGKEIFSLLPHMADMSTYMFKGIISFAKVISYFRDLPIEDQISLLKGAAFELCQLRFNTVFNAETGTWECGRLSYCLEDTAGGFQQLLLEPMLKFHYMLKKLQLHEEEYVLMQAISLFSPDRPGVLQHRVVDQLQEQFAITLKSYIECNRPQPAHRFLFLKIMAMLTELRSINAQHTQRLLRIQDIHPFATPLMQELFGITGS
Description: Inhibition of human PXR assessed as activity remaining at 2 uM relative to rifampicin

[6] = target: Phosphatidylinositol 4,5-bisphosphate 3-kinase catalytic subunit gamma isoform (Homo sapiens, UniProt P48736)
Description: Inhibition of PI3Kgamma by ATP bioluminescence assay

in vitro [7] = details: human, liver microsomes
Description: Drug metabolism in human liver microsomes at 1 uM after 30 mins

[8] = target: T1, Phosphatidylinositol 4,5-bisphosphate 3-kinase catalytic subunit beta isoform; remark: listed apart in the source
Description: Inhibition of PI3Kbeta using phosphatidylinositol-4,5-bisphosphate by ATP bioluminescence assay

[9] = target: T3, Phosphatidylinositol 4,5-bisphosphate 3-kinase catalytic subunit delta isoform (Homo sapiens, UniProt O00329)
T3 sequence (O00329 whole entry): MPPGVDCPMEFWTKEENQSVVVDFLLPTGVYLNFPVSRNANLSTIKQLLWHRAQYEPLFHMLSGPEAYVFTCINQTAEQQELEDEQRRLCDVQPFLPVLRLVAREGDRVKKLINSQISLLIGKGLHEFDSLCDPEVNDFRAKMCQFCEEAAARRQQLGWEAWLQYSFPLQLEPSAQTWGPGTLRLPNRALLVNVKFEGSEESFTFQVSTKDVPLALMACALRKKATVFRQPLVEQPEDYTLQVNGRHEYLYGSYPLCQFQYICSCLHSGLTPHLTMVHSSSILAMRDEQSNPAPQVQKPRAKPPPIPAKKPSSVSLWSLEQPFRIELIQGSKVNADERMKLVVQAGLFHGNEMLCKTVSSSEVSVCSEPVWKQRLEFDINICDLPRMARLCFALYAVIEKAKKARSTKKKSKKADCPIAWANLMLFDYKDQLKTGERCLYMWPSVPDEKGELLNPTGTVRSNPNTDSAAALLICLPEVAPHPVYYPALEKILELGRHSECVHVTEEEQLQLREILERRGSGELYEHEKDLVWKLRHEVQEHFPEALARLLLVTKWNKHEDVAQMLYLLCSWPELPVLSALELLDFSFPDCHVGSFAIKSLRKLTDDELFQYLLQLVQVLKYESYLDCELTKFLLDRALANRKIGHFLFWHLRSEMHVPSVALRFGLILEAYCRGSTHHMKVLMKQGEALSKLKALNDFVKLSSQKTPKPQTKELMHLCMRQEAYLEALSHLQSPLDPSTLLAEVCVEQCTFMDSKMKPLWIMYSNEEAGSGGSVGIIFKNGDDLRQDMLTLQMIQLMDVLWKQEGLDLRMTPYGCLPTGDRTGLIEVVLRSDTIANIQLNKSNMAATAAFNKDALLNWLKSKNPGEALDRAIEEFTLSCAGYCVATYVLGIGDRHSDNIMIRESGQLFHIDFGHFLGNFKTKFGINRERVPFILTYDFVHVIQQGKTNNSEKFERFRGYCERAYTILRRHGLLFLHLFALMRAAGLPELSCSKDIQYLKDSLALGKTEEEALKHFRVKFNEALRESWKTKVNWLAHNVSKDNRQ
Description: Inhibition of PI3Kdelta using phosphatidylinositol-4,5-bisphosphate by ATP bioluminescence assay

[10] = target: Phosphatidylinositol 4,5-bisphosphate 3-kinase catalytic subunit alpha isoform (Homo sapiens, UniProt P42336)
Description: Inhibition of PI3Kalpha by ATP bioluminescence assay

in vivo [11] = details: Sprague-Dawley, rat, iv, 0.5 mg/kg
Description: Half life in Sprague-Dawley rat at 0.5 mg/kg, iv

in vivo [12] = details: Sprague-Dawley, rat, iv, 0.5 mg/kg; remark: listed apart in the source
Description: Volume of distribution at steady state in Sprague-Dawley rat at 0.5 mg/kg, iv

in vivo [13] = details: Sprague-Dawley, rat, iv, 0.5 mg/kg; remark: listed apart in the source
Description: Clearance in Sprague-Dawley rat at 0.5 mg/kg, iv

in vivo [14] = details: Sprague-Dawley, rat, plasma, po, 2 mg/kg
in vivo [15] = details: Sprague-Dawley, rat, po, 2 mg/kg

Sequence of Phosphatidylinositol 4,5-bisphosphate 3-kinase catalytic subunit alpha isoform (P42336 whole entry, canonical isoform): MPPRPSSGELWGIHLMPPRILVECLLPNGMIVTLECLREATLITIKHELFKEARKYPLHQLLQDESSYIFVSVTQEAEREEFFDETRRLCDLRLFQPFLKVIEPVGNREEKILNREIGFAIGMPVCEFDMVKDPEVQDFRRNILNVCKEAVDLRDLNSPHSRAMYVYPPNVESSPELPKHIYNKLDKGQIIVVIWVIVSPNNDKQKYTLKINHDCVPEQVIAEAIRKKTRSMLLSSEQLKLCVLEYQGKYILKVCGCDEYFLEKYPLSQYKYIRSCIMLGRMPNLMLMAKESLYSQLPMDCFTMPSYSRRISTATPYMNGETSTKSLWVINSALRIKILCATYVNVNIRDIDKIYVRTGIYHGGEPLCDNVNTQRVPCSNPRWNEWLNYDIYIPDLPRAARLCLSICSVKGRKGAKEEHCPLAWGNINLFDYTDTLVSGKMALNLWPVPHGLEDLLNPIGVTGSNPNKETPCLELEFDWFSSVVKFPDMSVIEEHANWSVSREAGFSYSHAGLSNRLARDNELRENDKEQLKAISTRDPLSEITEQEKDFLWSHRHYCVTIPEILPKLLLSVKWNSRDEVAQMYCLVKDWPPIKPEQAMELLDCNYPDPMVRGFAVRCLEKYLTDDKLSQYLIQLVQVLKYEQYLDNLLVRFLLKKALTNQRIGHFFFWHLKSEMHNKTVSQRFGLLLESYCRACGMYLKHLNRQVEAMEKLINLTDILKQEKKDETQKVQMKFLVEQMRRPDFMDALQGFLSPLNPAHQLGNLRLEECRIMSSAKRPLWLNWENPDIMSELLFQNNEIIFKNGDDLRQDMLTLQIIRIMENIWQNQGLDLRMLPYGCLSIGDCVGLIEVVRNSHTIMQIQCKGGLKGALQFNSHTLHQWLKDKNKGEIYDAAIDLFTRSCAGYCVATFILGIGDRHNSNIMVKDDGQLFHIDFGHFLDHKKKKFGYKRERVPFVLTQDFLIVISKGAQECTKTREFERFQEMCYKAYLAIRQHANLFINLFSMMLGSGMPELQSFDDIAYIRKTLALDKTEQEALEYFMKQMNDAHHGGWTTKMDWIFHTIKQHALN
Sequence of Phosphatidylinositol 4,5-bisphosphate 3-kinase catalytic subunit gamma isoform (P48736 whole entry, canonical isoform): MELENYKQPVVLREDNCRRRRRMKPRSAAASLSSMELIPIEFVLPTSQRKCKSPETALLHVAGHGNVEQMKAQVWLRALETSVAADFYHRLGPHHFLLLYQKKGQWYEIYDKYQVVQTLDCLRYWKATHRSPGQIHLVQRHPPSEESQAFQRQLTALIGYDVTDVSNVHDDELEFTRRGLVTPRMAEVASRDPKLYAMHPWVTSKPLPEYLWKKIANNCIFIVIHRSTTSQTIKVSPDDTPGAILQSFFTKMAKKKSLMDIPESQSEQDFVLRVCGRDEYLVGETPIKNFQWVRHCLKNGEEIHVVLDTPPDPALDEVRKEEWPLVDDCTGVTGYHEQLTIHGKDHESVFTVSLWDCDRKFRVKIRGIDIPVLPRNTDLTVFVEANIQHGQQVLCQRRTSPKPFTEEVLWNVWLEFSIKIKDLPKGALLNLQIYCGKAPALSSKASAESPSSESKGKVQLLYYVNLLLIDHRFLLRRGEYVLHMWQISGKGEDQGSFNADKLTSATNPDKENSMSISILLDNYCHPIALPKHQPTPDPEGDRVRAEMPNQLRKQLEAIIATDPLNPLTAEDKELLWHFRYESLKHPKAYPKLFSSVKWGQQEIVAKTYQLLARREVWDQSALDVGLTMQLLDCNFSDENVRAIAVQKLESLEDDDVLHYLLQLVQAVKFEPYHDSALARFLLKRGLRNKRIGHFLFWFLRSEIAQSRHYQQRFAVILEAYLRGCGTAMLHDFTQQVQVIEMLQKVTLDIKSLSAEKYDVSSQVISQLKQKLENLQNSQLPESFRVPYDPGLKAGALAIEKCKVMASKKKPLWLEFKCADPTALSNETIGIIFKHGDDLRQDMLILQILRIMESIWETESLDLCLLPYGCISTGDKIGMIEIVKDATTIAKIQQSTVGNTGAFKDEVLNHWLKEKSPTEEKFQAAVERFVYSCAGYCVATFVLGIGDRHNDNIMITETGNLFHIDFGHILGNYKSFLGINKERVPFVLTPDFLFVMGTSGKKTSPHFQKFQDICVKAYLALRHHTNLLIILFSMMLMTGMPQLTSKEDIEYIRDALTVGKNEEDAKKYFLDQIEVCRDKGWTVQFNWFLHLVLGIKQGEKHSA
T1 sequence (P42338 whole entry, canonical isoform): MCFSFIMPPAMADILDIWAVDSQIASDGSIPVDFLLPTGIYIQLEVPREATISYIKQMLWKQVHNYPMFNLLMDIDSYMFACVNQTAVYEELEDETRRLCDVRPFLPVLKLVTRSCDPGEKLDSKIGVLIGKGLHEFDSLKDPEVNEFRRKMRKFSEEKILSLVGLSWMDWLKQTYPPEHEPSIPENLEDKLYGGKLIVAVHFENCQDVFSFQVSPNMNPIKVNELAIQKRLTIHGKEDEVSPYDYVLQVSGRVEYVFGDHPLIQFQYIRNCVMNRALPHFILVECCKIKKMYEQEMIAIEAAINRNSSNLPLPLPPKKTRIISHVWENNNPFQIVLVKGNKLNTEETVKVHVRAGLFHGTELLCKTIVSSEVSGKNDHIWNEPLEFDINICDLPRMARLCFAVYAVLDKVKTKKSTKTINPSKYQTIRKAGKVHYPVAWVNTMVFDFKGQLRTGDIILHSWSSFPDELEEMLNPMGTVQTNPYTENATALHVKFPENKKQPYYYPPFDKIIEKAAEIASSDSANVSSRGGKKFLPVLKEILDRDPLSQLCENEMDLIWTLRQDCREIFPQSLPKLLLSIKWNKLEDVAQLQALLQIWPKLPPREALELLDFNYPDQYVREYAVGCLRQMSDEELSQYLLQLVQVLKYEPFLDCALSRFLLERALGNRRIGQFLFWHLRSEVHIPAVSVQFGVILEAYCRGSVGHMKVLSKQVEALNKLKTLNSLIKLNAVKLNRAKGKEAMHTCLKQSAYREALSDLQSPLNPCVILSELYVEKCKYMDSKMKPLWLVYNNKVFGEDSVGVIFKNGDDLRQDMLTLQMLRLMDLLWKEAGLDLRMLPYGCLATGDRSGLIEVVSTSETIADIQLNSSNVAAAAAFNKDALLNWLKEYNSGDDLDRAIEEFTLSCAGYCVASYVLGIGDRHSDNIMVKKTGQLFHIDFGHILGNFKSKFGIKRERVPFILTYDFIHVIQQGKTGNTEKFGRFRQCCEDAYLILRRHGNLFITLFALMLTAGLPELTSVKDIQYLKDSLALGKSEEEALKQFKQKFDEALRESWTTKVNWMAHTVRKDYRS

metabolised at 0.5 h, 1 µM (in vitro [1]) | solubility (physchem [3]) | activity at 2 µM [5] | metabolised at 0.5 h, 1 µM (in vitro [7]) | IC50 [8] | IC50 [9] | Ki [6] | Ki [8] | also measured | Compound
34% | 7.4 µg/mL (≈ 15.8 µM) | 106% | 40% | 58 nM |  |  |  | IC50 [2]: 53 nM; logD (physchem [4]): 4.5; IC50 [6]: 2010 nM | Cc1c(-c2ccccn2)nc2cc(F)ccc2c1N1CC(C)(C)c2ccc(N3CCOCC3)cc21
49% | 5.2 µg/mL (≈ 11.1 µM) | 104% | 52% | 720 nM | 72 nM |  |  |  | Cc1c(-c2ccccn2)nc2cccc(F)c2c1N1CC(C)(C)c2ccc(N3CCOCC3)cc21
71% |  | 1% | 70% | 54 nM | 450 nM |  |  |  | Cc1nc2ccccc2c(N2CC3(CCOCC3)c3ccc(N4CCOCC4)cc32)c1C
46% | 3.2 µg/mL (≈ 6.51 µM) | 103% | 62% | 105 nM | 91 nM |  |  |  | Cc1c(-c2ccccc2)nc2ccccc2c1N1CC2(CCOCC2)c2ccc(N3CCOCC3)cc21
13% |  | 22% | 64% | 143 nM | 64 nM |  |  |  | Cc1c(-c2ccccn2)nc2cc(F)ccc2c1N1CC2(CCOCC2)c2ccc(N3CCOCC3)cc21
 |  |  |  |  |  | 7340 nM | 395 nM | Ki [10]: > 12500 nM | Cc1c(-c2ccccn2)nc2cc(F)ccc2c1N1CC2(CS(=O)(=O)C2)c2ccc(N3CCOCC3)cc21
 |  |  |  |  |  | 16000 nM | 269 nM | Ki [10]: > 125000 nM | Cc1c(-c2ccccn2)nc2cc(F)ccc2c1N1CC(CO)(CO)c2ccc(N3CCOCC3)cc21
 |  |  |  | 81 nM |  |  |  | IC50 [6]: 1400 nM | Cc1c(-c2ccccn2)nc2cc(F)ccc2c1N1CC(C)(C)c2ccc(-c3ccncc3)cc21
 |  |  |  |  |  | 90 nM | 54 nM | half-life (in vivo [11]): 6.1 h; Vd (in vivo [12]): 7.5 L/kg; clearance (in vivo [13]): 26.8 mL/min/kg | Cc1c(-c2ccccn2)nc2cc(F)ccc2c1N1CC(C)(C)c2ccc(-c3ccnc(N)n3)cc21
 |  |  |  |  |  | 364 nM | > 125000 nM | Ki [10]: > 125000 nM | Cc1cc(-c2ccc3c(c2)N(c2c(C)c(-c4ccccn4)nc4cc(F)ccc24)CC3(C)C)nc(N)n1
28% | 11 µg/mL (≈ 23.4 µM) | 22% | 47% |  |  | 92 nM | 30 nM | IC50 [2]: 51 nM; half-life (in vivo [11]): 6.2 h; Ki [10]: 1720 nM; AUC (in vivo [14]): 2 µM·h; Vd (in vivo [12]): 5 L/kg; clearance (in vivo [13]): 16.2 mL/min/kg; bioavailability (in vivo [15]): 47%; Ki [9]: 7 nM | Cc1c(-c2ccccn2)nc2cc(F)ccc2c1N1CC(C)(C)c2ncc(N3CCOCC3)cc21
34% | 17 µg/mL (≈ 35.6 µM) | 65% | 12% |  |  | 28 nM | 18 nM | IC50 [2]: 10 nM | Cc1c(-c2ccccn2)nc2cc(F)ccc2c1N1CC(C)(C)c2ncc(-c3ccnc(N)n3)cc21
94% | 1 µg/mL (≈ 2.58 µM) | 14% | 65% | 60 nM | 362 nM |  |  | IC50 [10]: 41000 nM; IC50 [6]: 18000 nM | Cc1nc2ccccc2c(N2CC(C)(C)c3ccc(N4CCOCC4)cc32)c1C
84% | 1 µg/mL (≈ 2.37 µM) | 17% | 54% | 60 nM |  |  |  |  | Cc1nc2ccc(Cl)cc2c(N2CC(C)(C)c3ccc(N4CCOCC4)cc32)c1C
57% | 2.4 µg/mL (≈ 5.34 µM) | 197% | 42% | 59 nM | 85 nM |  |  |  | Cc1c(-c2ccccc2)nc2ccccc2c1N1CC(C)(C)c2ccc(N3CCOCC3)cc21
52% | 1 µg/mL (≈ 2.14 µM) | 162% | 47% | 35 nM | 47 nM |  |  |  | Cc1c(-c2ccccc2F)nc2ccccc2c1N1CC(C)(C)c2ccc(N3CCOCC3)cc21
